Assay results reported in patent publication US5885815A, “Candida isoleucyl-tRNA synthetase proteins, nucleic acids and strains comprising same” (priority 1996, dated 1999).

Assays:
[1] = target: T1, Candida albicans isoleucyl-tRNA synthetase, N-terminal GST-fusion protein (GST-IleRS) encoded by pQB83CAIRS-1, produced in S. cerevisiae, SEQ ID NO:2 (Candida albicans, UniProt Q59RI1, S1065L/S390L); test: Aminoacylation (charging) assay for Km determination, purified GST-IleRS fusion; type: biochemical; conditions: isoleucine varied; 1.09 nM active enzyme; crude yeast tRNA
T1 construct: thrombin-cleavable), pQB83CAIRS-1, expressed in S. cerevisiae QBY3; CTG codons 390 and 1065 read as Leu by host
T1 sequence (Q59RI1 whole entry S390L/N691S/E755D/I1040V/S1065L, the tested form may be a part): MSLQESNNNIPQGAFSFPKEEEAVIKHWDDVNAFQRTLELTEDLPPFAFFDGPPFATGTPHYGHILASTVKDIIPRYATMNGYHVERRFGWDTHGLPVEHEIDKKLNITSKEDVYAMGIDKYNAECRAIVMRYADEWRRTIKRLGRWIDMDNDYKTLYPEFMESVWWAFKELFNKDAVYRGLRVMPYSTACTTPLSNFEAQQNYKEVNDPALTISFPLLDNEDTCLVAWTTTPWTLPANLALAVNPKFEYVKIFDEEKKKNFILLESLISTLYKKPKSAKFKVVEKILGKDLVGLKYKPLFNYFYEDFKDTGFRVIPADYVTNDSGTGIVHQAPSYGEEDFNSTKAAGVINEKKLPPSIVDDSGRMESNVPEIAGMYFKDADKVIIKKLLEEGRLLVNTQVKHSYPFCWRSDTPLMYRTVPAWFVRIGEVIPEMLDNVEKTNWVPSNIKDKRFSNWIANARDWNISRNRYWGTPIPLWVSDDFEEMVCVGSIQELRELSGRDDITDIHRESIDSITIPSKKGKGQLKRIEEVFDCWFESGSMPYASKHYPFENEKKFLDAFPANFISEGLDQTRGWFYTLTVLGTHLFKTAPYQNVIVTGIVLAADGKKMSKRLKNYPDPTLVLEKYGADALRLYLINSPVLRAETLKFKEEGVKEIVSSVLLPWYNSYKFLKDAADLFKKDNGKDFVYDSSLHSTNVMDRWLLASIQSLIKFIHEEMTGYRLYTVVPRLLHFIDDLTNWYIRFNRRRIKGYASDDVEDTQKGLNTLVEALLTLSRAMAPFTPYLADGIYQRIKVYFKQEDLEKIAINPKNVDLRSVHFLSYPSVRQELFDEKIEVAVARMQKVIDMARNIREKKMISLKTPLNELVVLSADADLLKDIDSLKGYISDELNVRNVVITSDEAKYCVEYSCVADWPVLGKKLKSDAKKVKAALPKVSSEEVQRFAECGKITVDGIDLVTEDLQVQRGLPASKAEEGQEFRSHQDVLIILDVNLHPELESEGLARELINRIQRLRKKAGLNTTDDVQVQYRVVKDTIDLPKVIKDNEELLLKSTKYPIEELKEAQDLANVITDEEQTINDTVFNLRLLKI
Procedure: (§1) The purified recombinant GST-fusion protein and the product after thrombin cleavage of the GST-fusion protein were tested for their charging activities. Charging assays were based on the procedure of Shepard et al. (Proc. Natl. Acad. Sci. USA 89:9964-68 (1992)). Unless otherwise stated, a typical 50 μl reaction was carried out at 25° C. and contained 4 mM ATP, 20 μM of [^3 H]isoleucine, 90 μM crude tRNA from E. coli (Sigma) or brewer's yeast (Boehringer Mannheim), 10 μM KF, 50 mM HEPES, pH 7.5, 10 mM MgCl2, 10 mM DTT or β-mercaptoethanol and 30 mM NH4 Cl. Purified enzyme was diluted in 100 mM HEPES, pH 7.5, 20 mM DTT and 0.1 mg/ml BSA.
(§2) Reactions were started by the addition of enzyme to the reaction mixture preincubated at 25° C. At various time intervals, 10 μl of the reaction mix was spotted on 3MM Whatman filter circles which were then immersed in ice cold 5% TCA. After three washes in ice cold 5% TCA (at least 15 minutes each), the filters were rinsed once with cold ethanol, once with ether, and air dried. The radioactivity was quantitated by counting the filters in a table top scintillation counter (Packard) in the presence of scintillation fluid (Betafluor; National Diagnostics).
(§3) For determination of Km, various concentrations of one substrate (ATP, amino acid, or tRNA) were used while the other two substrates were kept at saturating concentrations. To test the effect of temperature, the reactions were incubated at 25°, 30°, 37° and 42° C. The Bradford assay was used for determination of total protein. The proportion of active enzyme was calculated by monitoring the formation of the amino acid-adenylate:enzyme complex using a nitrocellulose filter binding assay in the presence of various dilutions of enzyme preparation. A 50 μl reaction contained 1 mM ATP, 1 unit of pyrophosphatase, 50 mM Tris-HCl, pH 5.8, 10 mM MgCl2, 30 mM KCl, 20 mM DTT, 40 μM of radioactively labeled amino acid, and diluted enzyme. […]

[2] = tested on: CC[C@H](C)[C@H](N)C(=O)O; test: as above; type: biochemical, Candida albicans; conditions: other: crude yeast tRNA, 2 to 32 μM [3H]isoleucine, 25° C., spread printed in b267: ±4.8 μM
Procedure: as §1, §2, §3

Row | Compound | Vmax [1] [nM/s] | kcat [1] [per sec] | Km [2] [µM]
1 | CC[C@H](C)[C@H](N)C(=O)O [isoleucine] | 4 ± 0.5 | 3.7±0.5 | –
2 | Candida albicans isoleucyl-tRNA synthetase, N-terminal GST-fusion protein (GST-IleRS) encoded by pQB83CAIRS-1, produced in S. cerevisiae, SEQ ID NO:2 (Candida albicans SC5314; S1065L/S390L) | – | – | 17
